These results are taken from publication PMC8512870, “Anti-Fungal Hevein-like Peptides Biosynthesized from Quinoa Cleavable Hololectins” (Molecules, 2021).

Molecules are shown by their SMILES. Where a SMILES comes first, the peptide text is derived from it. Bridges are numbered along the chain shown (N, C = ends).

For one data set, the system named is aminopeptidase I. The data set can be described thus: Proteolytic stability, aminopeptidase I. The data set is classed as in vitro ADME. Conditions: recommended buffer, RP-HPLC peak area and MALDI-TOF MS, n = 3. As to the method: (§1) Assessments of thermal, acidic and proteolytic stability were performed as previously described. Purified chenotide cQ2 was incubated at the stated conditions and recommended buffer solution. At each time interval, samples were aliquoted in triplicate and RP-UPLC was performed. The area under the peak was used to determine the amount of chenotide present before and after treatment.

A further data set can be described thus: Stability in horse serum. The data set is classed as in vitro ADME. Conditions: RP-HPLC peak area and MALDI-TOF MS, n = 3. The method, then:
as §1

Another data set in a line: Stability in human serum. The data set is classed as in vitro ADME. Conditions: RP-HPLC peak area and MALDI-TOF MS, n = 3. As to the method: as §1
Data set [1] has as its system Rhizoctonia solani (CICC 40259). The data set can be described thus: Microbroth dilution anti-fungal assay. As to conditions: spores 1 × 10^5 cells/mL in half-strength potato dextrose broth, 25 °C, 24 h, crystal violet, absorbance 570 nm, listed as chenotide cQ2, read-out: IC50 against Rhizoctonia solani. The data set is classed as cell-based. As to the method: (§2) The half-maximal inhibitory concentration levels (IC50) of peptides were determined by a microbroth dilution assay. Fungal spores were harvested from a 4-day-old actively growing fungal plate and suspended in half-strength potato dextrose broth. Spore suspensions (1 × 10^5 cells/mL) were mixed with peptides at varying concentrations in 96-well microplates and incubated at 25 °C for 24 h. The cells were then fixed with 100% methanol for 15 min and stained for 45 min with crystal violet dye. Excess dye was removed with MilliQ water. Elution was performed using 1:1 (v/v) ethanol/0.1 N HCl. The absorbance was measured at 570 nm.

Data set [2] deals with Curvularia lunata (CICC 40301). The data set can be described thus: Microbroth dilution anti-fungal assay. The data set is classed as cell-based. Conditions: spores 1 × 10^5 cells/mL in half-strength potato dextrose broth, 25 °C, 24 h, crystal violet, absorbance 570 nm, listed as chenotide cQ2, read-out: IC50 against Curvularia lunata. As to the method: as §2
Data set [3] relates to Alternaria alternata (CICC 2465). The data set can be described thus: Microbroth dilution anti-fungal assay. The data set is classed as cell-based. As to conditions: spores 1 × 10^5 cells/mL in half-strength potato dextrose broth, 25 °C, 24 h, crystal violet, absorbance 570 nm, listed as chenotide cQ2, read-out: IC50 against Alternaria alternata. The method, then:
as §2

The subject of data set [4] is Fusarium oxysporum (CICC 2532). The data set can be described thus: Microbroth dilution anti-fungal assay. The data set is classed as cell-based. Conditions: spores 1 × 10^5 cells/mL in half-strength potato dextrose broth, 25 °C, 24 h, crystal violet, absorbance 570 nm, listed as chenotide cQ2, read-out: IC50 against Fusarium oxysporum. As to the method: as §2
A further data set has as its system pepsin. The data set can be described thus: Proteolytic stability, pepsin. The data set is classed as in vitro ADME. As to conditions: recommended buffer, RP-HPLC peak area and MALDI-TOF MS, n = 3. As to the method: as §1

For the compound `CC(C)C[C@@H]1NC(=O)CNC(=O)CNC(=O)[C@@H]2CCCN2C(=O)[C@@H]2CSSC[C@@H]3NC(=O)[C@H](Cc4ccccc4)NC(=O)CNC(=O)[C@H](Cc4ccccc4)NC(=O)[C@H](CCCCN)NC(=O)[C@H](CO)NC(=O)[C@H](CSSC[C@H](NC(=O)[C@H](CCC(=O)O)NC(=O)CNC(=O)[C@H](C)N)C(=O)N[C@@H](C(C)C)C(=O)N[C@@H](CCCNC(=N)N)C(=O)NCC(=O)N[C@@H](CCCNC(=N)N)C(=O)N2)NC(=O)[C@H](CSSC[C@@H](C(=O)NCC(=O)NCC(=O)O)NC(=O)[C@H](Cc2ccc(O)cc2)NC(=O)[C@H](C)NC(=O)[C@@H]2CCCN2C(=O)CNC(=O)[C@H](CO)NC(=O)CNC3=O)NC1=O` [cQ2] (H-AGECVRGRCPGGLCCSKFGFCGSGPAYCGG-OH; disulfide 4-15, 9-21, 14-28), the “Peptide retained after aminopeptidase I treatment” value with aminopeptidase I was above 80%. Further, in the data set “Stability in horse serum”, the “Peptide retained after horse serum treatment” value was above 80%. Besides, in “Stability in human serum”, the “Peptide retained after human serum treatment” value was above 80%. In addition, the 50% inhibitory concentration (IC50) in data set [1] is around 3 µM; in data set [2], around 5 µM; in data set [3], around 9 µM; in data set [4], around 0.3 µM. Also, in the data set on pepsin, the “Peptide retained after pepsin treatment” value is above 80%.
